Reference: the NIST ThermoML archive (doi:10.1016/j.fluid.2007.03.019)

Experiment: osmotic coefficient (dimensionless); mn = molality of the nth substance listed, in mol/kg
Details: 318.15 K, 101 kPa, Liquid

CCCCn1cc[n+](C)c1.[Br-] [1-butyl-3-methylimidazolium bromide] + O
vapor pressure osmometry
Details	osmotic coefficient
m1 = 0.022	0.944
m1 = 0.0461	0.926
m1 = 0.0726	0.894
m1 = 0.1241	0.855
m1 = 0.2702	0.809
m1 = 0.3522	0.785
m1 = 0.3994	0.777
m1 = 0.5204	0.755
m1 = 0.7354	0.726
m1 = 0.9713	0.713
m1 = 1.272	0.701
m1 = 2.024	0.69

CCCCn1cc[n+](C)c1.F[P-](F)(F)(F)(F)F [1-butyl-3-methylimidazolium hexafluorophosphate] + CC#N
osmometer
Details	osmotic coefficient
m1 = 0.0116	0.76
m1 = 0.019	0.636
m1 = 0.0321	0.477
m1 = 0.0366	0.436
m1 = 0.0544	0.323
m1 = 0.0691	0.278
m1 = 0.0918	0.287
m1 = 0.1015	0.314
m1 = 0.1285	0.415
m1 = 0.1496	0.515
m1 = 0.1789	0.692
m1 = 0.2032	0.857

CCCCn1cc[n+](C)c1.F[B-](F)(F)F [1-butyl-3-methylimidazolium tetrafluoroborate] + CC#N
osmometer
Details	osmotic coefficient
m1 = 0.0093	0.906
m1 = 0.0203	0.648
m1 = 0.0341	0.462
m1 = 0.0631	0.293
m1 = 0.0795	0.273
m1 = 0.1043	0.314
m1 = 0.1163	0.344
m1 = 0.1359	0.412
m1 = 0.1472	0.462
m1 = 0.1631	0.553
m1 = 0.1791	0.646
m1 = 0.2091	0.872

CCCCn1cc[n+](C)c1.F[B-](F)(F)F [1-butyl-3-methylimidazolium tetrafluoroborate] + O
vapor pressure osmometry
Details	osmotic coefficient
m1 = 0.0101	1.01
m1 = 0.0355	0.992
m1 = 0.044	0.927
m1 = 0.0701	0.887
m1 = 0.0971	0.864
m1 = 0.152	0.808
m1 = 0.1977	0.793
m1 = 0.2891	0.739
m1 = 0.3968	0.672
m1 = 0.4678	0.657
m1 = 0.5632	0.611
m1 = 0.799	0.532
m1 = 1.023	0.473
m1 = 1.468	0.372
m1 = 2.417	0.257
